ChEMBL document CHEMBL1201862, “PubChem BioAssay data set” (2004)
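Interpolation was linear, between the two tested concentrations surrounding the appropriate level; five concentrations were tested over 48 hours in 96-well plates. GI50: concentration for 50% inhibition of growth.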 Activity calls are given as the source filed them. No stated cut-off is given here; in the data, active = GI50 up to about 1.1 µM and inactive = higher.

Key:
Test in all cases: inhibition of tumour cell growth, NCI panel, 48 h
[1] = system: HCT-15
[2] = system: SF-268
[3] = system: LOX IMVI
[4] = system: SNB-75
[5] = system: UO-31
[6] = system: Malme-3M
[7] = system: COLO 205
[8] = system: OVCAR-8
[9] = system: NCI-H522
[10] = system: K562
[11] = system: RXF 393
[12] = system: U-251
[13] = system: A498
[14] = system: 786-0
[15] = system: HOP-62
[16] = system: SK-OV-3
[17] = system: MDA-MB-435
[18] = system: PC-3
[19] = system: SW-620
[20] = system: EKVX
[21] = system: MOLT-4
[22] = system: NCI-H226
[23] = system: SK-MEL-5
[24] = system: MDA-MB-231
[25] = system: NCI/ADR-RES
[26] = system: ACHN
[27] = system: OVCAR-4
[28] = system: HT-29
[29] = system: T47D
[30] = system: SN12C
[31] = system: Hs-578T
[32] = system: CCRF-CEM
[33] = system: IGROV-1
[34] = system: SF-295
[35] = system: UACC-62
[36] = system: M14
[37] = system: CAKI-1
[38] = system: A549
[39] = system: NCI-H23
[40] = system: BT-549
[41] = system: SNB-19
[42] = system: UACC-257
[43] = system: HOP-92
[44] = system: KM12
[45] = system: SK-MEL-28
[46] = system: RPMI-8226
[47] = system: DU-145
[48] = system: SK-MEL-2
[49] = system: OVCAR-3
[50] = system: HCT-116
[51] = system: TK-10
[52] = system: OVCAR-5
[53] = system: HL-60
[54] = system: SR
[55] = system: MCF7
[56] = system: SF-539
[57] = system: NCI-H460

Measured: GI50

Cc1ccccc1/N=N/c1ccc(/N=N/c2c(O)ccc3ccccc23)c(C)c1 [SCARLET RED]
> 100 µM: [1]
inactive: [2] 70.3 µM | [3] > 100 µM | [4] 72.1 µM | [5] > 100 µM | [6] > 100 µM | [7] > 100 µM | [8] > 100 µM | [9] > 100 µM | [10] > 100 µM | [11] > 100 µM | [12] > 100 µM | [13] > 100 µM | [14] > 100 µM | [15] 38 µM | [16] > 100 µM | [17] > 100 µM | [18] > 100 µM | [19] > 100 µM | [20] > 100 µM | [21] > 100 µM | [22] > 100 µM | [23] > 100 µM | [24] > 100 µM | [25] > 100 µM | [26] > 100 µM | [27] > 100 µM | [28] > 100 µM | [29] > 100 µM | [30] > 100 µM | [31] 44.2 µM | [32] > 10 µM | [33] > 100 µM | [34] 56.8 µM | [35] > 100 µM | [36] > 100 µM | [37] > 100 µM | [38] > 100 µM | [39] > 100 µM | [40] > 100 µM | [41] 81.7 µM | [42] > 100 µM | [43] > 100 µM | [44] > 100 µM | [45] > 100 µM | [46] > 100 µM | [47] > 100 µM | [48] > 100 µM | [49] > 100 µM | [50] > 100 µM | [51] > 100 µM | [52] > 100 µM

CN(C(=O)[C@@H](NC(=O)OC(C)(C)C)c1ccccc1)[C@H]1CCCC[C@@H]1N1CCCC1
> 100 µM: [1]
inactive: [2] > 100 µM | [53] > 100 µM | [5] > 100 µM | [7] > 100 µM | [8] > 100 µM | [9] > 100 µM | [54] > 100 µM | [10] > 100 µM | [12] > 100 µM | [13] > 100 µM | [14] > 100 µM | [15] > 100 µM | [16] > 100 µM | [17] > 100 µM | [55] > 100 µM | [18] > 100 µM | [19] > 100 µM | [20] > 100 µM | [21] > 100 µM | [22] > 100 µM | [23] > 100 µM | [24] > 100 µM | [25] > 100 µM | [56] > 100 µM | [26] > 100 µM | [27] > 100 µM | [28] > 100 µM | [29] > 100 µM | [30] > 100 µM | [31] > 100 µM | [33] > 100 µM | [34] > 100 µM | [35] > 100 µM | [36] > 100 µM | [37] > 100 µM | [38] > 100 µM | [39] > 100 µM | [40] > 100 µM | [41] > 100 µM | [42] 72.6 µM | [44] > 100 µM | [45] > 100 µM | [46] > 100 µM | [47] > 100 µM | [48] > 100 µM | [49] > 100 µM | [50] > 100 µM | [51] > 100 µM | [52] > 100 µM

COc1cc2c(/C=C3/C(=O)Nc4cccc(Cl)c43)c(Cl)[nH]c2cc1C
inactive: [2] 3.8 µM | [3] 1.8 µM | [53] 1.82 µM | [4] 1.44 µM | [57] 1.72 µM | [5] 3.73 µM | [7] 1.95 µM | [8] 2.54 µM | [9] 2.32 µM | [54] 1.41 µM | [10] 1.76 µM | [11] 2 µM | [12] 1.78 µM | [13] 8.67 µM | [14] 1.85 µM | [15] 2.15 µM | [16] 2.21 µM | [17] 1.57 µM | [55] 2.05 µM | [18] 2.68 µM | [19] 2.24 µM | [22] 1.44 µM | [23] 3.5 µM | [25] 1.65 µM | [56] 1.6 µM | [26] 2.67 µM | [28] 1.94 µM | [29] 1.43 µM | [30] 1.32 µM | [31] 1.98 µM | [32] 1.56 µM | [33] 1.59 µM | [34] 1.69 µM | [35] 1.95 µM | [36] 2.23 µM | [37] 1.86 µM | [38] 2.09 µM | [39] 2.51 µM | [40] 1.46 µM | [41] 2.14 µM | [42] 2.26 µM | [43] 8.17 µM | [44] 1.7 µM | [45] 1.21 µM | [46] 1.93 µM | [47] 1.88 µM | [48] 3.05 µM | [49] 1.6 µM | [50] 1.49 µM | [52] 4.02 µM
1.95 µM: [1]
active: [21] 0.366 µM | [24] 1.08 µM | [27] 0.078 µM | [51] 1.06 µM
